# Test: Dissolution / solubility in water over time, crystalline material compared with solid dispersion
# Type: physicochemical
compound,measurement,setting,value
"Cc1ccc(C)c(OCCCC(C)(C)C(=O)O)c1 [Crystalline, 5-(2,5-dimethylphenoxy)-2,2-dimethylpentanoic acid]",solubility at 1 h,Time: One hour,14.7 µg/mL
same,solubility at 20 h,Time: Twenty Hours,21.3 µg/mL
same,solubility at 24 h,Time: Twenty-four Hours,22.4 µg/mL
same,solubility at 2 h,Time: Two Hours,18.4 µg/mL
